Reference: ChEMBL document CHEMBL1201862, “PubChem BioAssay data set” (2004)
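96-well plates; 48 h exposure; 5 concentrations. Endpoints by linear interpolation between flanking doses. Not reached: highest tested concentration assigned. The concentration for 50% growth inhibition is given as GI50.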 Calls of active or inactive are those of the source. Cut-off read from the data, not from the text of the source: active = GI50 up to about 1.1 µM and inactive = higher.

Columns and labels:
Experiment in all cases: inhibition of tumour cell growth, NCI panel, 48 h
[1] = test system: NCI-H460
[2] = test system: RXF 631
[3] = test system: HCC 2998
[4] = test system: SNB-78
[5] = test system: IGROV-1
[6] = test system: ACHN
[7] = test system: OVCAR-4
[8] = test system: RXF 393
[9] = test system: HCT-116
[10] = test system: SF-539
[11] = test system: LXFL 529
[12] = test system: KM-20L2
[13] = test system: SK-MEL-5
[14] = test system: SW-620
[15] = test system: COLO 205
[16] = test system: HOP-92
[17] = test system: NCI-H226
[18] = test system: HOP-18
[19] = test system: UACC-62
[20] = test system: HT-29
[21] = test system: Malme-3M
[22] = test system: NCI/ADR-RES
[23] = test system: OVCAR-3
[24] = test system: NCI-H522
[25] = test system: CCRF-CEM
[26] = test system: RPMI-8226
[27] = test system: MOLT-4
[28] = test system: SNB-19
[29] = test system: EKVX
[30] = test system: MDA-MB-231
[31] = test system: MDA-MB-435
[32] = test system: BT-549
[33] = test system: DMS-114
[34] = test system: SNB-75
[35] = test system: UACC-257
[36] = test system: SK-OV-3
[37] = test system: A549
[38] = test system: NCI-H23
[39] = test system: SK-MEL-2
[40] = test system: HCT-15
[41] = test system: M19-MEL
[42] = test system: CAKI-1
[43] = test system: LOX IMVI
[44] = test system: UO-31
[45] = test system: DU-145
[46] = test system: SF-295
[47] = test system: Hs-578T
[48] = test system: DLD-1
[49] = test system: OVCAR-8
[50] = test system: A498
[51] = test system: TK-10
[52] = test system: K562
[53] = test system: SF-268
[54] = test system: HL-60
[55] = test system: U-251
[56] = test system: KM12
[57] = test system: DMS-273
[58] = test system: 786-0
[59] = test system: M14
[60] = test system: SR
[61] = test system: MCF7
[62] = test system: SK-MEL-28
[63] = test system: MDA-N
[64] = test system: PC-3
[65] = test system: SN12C
[66] = test system: T47D
[67] = test system: OVCAR-5
[68] = test system: XF498
[69] = test system: HOP-62

Measured: GI50

O=S1(=O)CCC2=CC(C(F)(F)F)=CC(C(F)(F)F)=CN21
inactive: [1] 2.59 µM | [2] 1.95 µM | [3] 2.07 µM | [4] 1.85 µM | [5] 1.84 µM | [7] 1.71 µM | [8] 1.47 µM | [10] 1.42 µM | [12] 2.11 µM | [13] 1.42 µM | [16] 1.15 µM | [17] 2.08 µM | [18] 3.35 µM | [19] 1.64 µM | [20] 1.53 µM | [28] 2.47 µM | [29] 2.93 µM | [30] 2.78 µM | [31] 1.82 µM | [32] 2.43 µM | [33] 1.37 µM | [34] 1.71 µM | [35] 2.14 µM | [36] 3.86 µM | [37] 2.96 µM | [38] 1.19 µM | [39] 1.82 µM | [41] 1.41 µM | [46] 2.12 µM | [47] 3.1 µM | [50] 2.08 µM | [53] 1.72 µM | [55] 1.83 µM | [56] 1.71 µM | [62] 1.78 µM | [64] 2.01 µM | [65] 1.55 µM | [67] 2.11 µM | [68] 1.79 µM | [69] 2.34 µM
485 nM: [40]
active: [6] 415 nM | [9] 245 nM | [11] 435 nM | [14] 302 nM | [15] 454 nM | [21] 733 nM | [22] 1.09 µM | [23] 1.12 µM | [24] 236 nM | [25] 73.8 nM | [26] 535 nM | [27] 243 nM | [42] 560 nM | [43] 348 nM | [44] 805 nM | [45] 542 nM | [48] 339 nM | [49] 308 nM | [51] 697 nM | [52] 390 nM | [54] 168 nM | [57] 767 nM | [58] 415 nM | [59] 693 nM | [60] 216 nM | [61] 386 nM | [63] 792 nM | [66] 167 nM
